Reference: ChEMBL document CHEMBL1134947, “A mechanism-based probe for gp120-Hydrolyzing antibodies” (Bioorg Med Chem Lett, 2002)
Square brackets hold non-standard residues; d marks the D form. Peptide text beside a SMILES is read from it. * marks the point of attachment. X2 = N=C(N)c1ccc(C(N*)P(=O)(Oc2ccccc2)Oc2ccccc2)cc1; X1 = O=C(CCCCC1SCC2NC(=O)NC21)NCCNC(=O)CCS*; Mpa = O=C(O)CCS

Target: T1, Serine protease 1 (Bos taurus, UniProt P00760)
T1 sequence (P00760 whole entry): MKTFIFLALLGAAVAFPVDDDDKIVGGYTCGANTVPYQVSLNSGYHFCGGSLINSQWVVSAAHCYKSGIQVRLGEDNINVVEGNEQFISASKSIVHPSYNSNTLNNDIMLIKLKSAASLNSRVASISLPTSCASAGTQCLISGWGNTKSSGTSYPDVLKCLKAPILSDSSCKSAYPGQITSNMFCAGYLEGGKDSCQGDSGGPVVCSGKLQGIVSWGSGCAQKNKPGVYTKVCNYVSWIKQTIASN
Assay: Concentration required for the inhibition of catalytic activity of bovine trypsin

| Structure (SMILES) | IC50 [µM] |
| --- | --- |
| N=C(N)c1ccc(C(NC(=O)CCSSCCC(=O)NCCNC(=O)CCCCC2SCC3NC(=O)NC32)P(=O)(Oc2ccccc2)Oc2ccccc2)cc1 (configuration not stated) | 31 |
| CC[C@H](C)[C@H](NC(=O)[C@H](CCC(N)=O)NC(=O)[C@H](CCCCN)NC(=O)CCSSCCC(=O)NCCNC(=O)CCCCC1SCC2NC(=O)NC21)C(=O)N[C@H](C(=O)N[C@@H](CC(N)=O)C(=O)N[C@@H](CCSC)C(=O)N[C@@H](Cc1c[nH]c2ccccc12)C(=O)N[C@@H](CCC(N)=O)C(=O)N[C@@H](CCC(=O)O)C(=O)N[C@H](C(=O)NCC(=O)NC(c1ccc(C(=N)N)cc1)P(=O)(Oc1ccccc1)Oc1ccccc1)C(C)C)[C@@H](C)CC (some centres not stated) ([Mpa](X1)KQIINMWQEVG-X2) | 30 |
